{"source": "patent US5114967A", "about": "“Antibiotic alisamycin and its use” (Hoechst Aktiengesellschaft, priority 1990, dated 1992)", "key": {"Botrytis cinerea 47 [1]": {"tested_on": "Botrytis cinerea 47"}, "Piriicularia oryzae [2]": {"tested_on": "Piriicularia oryzae", "assay": "agar-well method in Antibiotic Assay medium", "assay_type": "cell-based"}, "[3]": {"tested_on": "Staphylococcus aureus E88", "assay": "agar-well method in Antibiotic Assay medium", "settings": "E88, read-out: Zone diam"}, "[4]": {"tested_on": "Staphylococcus aureus 209 p"}, "solubility": {"assay": "solubility", "assay_type": "physicochemical"}, "[5]": {"tested_on": "Staphylococcus aureus E88"}, "Piriicularia oryzae [6]": {"tested_on": "Piriicularia oryzae", "assay_type": "cell-based"}, "[7]": {"tested_on": "Staphylococcus aureus 209 p", "assay": "agar-well method in Antibiotic Assay medium", "settings": "read-out: Zone diam"}, "[8]": {"tested_on": "Streptococcus faecalis UD8b", "assay": "agar-well method in Antibiotic Assay medium", "settings": "Enterococcus faecalis, read-out: Zone diam"}, "Candida albicans [9]": {"tested_on": "Candida albicans", "assay": "agar-well method in Antibiotic Assay medium", "settings": "read-out: Zone diam"}, "[10]": {"tested_on": "Streptococcus faecalis Eder", "settings": "Enterococcus faecalis"}, "[11]": {"tested_on": "Streptococcus faecalis 23241", "assay": "agar-well method in Antibiotic Assay medium", "settings": "Enterococcus faecalis, 23241, read-out: Zone diam"}, "gram-negative bacteria": {"tested_on": "gram-negative bacteria", "assay": "antibacterial activity (general statement)", "assay_type": "cell-based"}, "[12]": {"tested_on": "Streptococcus faecalis Eder", "assay": "agar-well method in Antibiotic Assay medium", "settings": "Enterococcus faecalis, read-out: Zone diam"}, "Candida albicans [13]": {"tested_on": "Candida albicans"}, "gram-positive bacteria": {"tested_on": "gram-positive bacteria", "assay": "antibacterial activity (general statement)", "assay_type": "cell-based"}, "[14]": {"tested_on": "Staphylococcus aureus 20424", "assay": "agar-well method in Antibiotic Assay medium", "settings": "Staphylococcus aureus, 20424, read-out: Zone diam"}, "[15]": {"tested_on": "Streptococcus faecalis UD8b", "settings": "Enterococcus faecalis"}, "[16]": {"tested_on": "Streptococcus faecalis 23241", "settings": "Enterococcus faecalis"}, "Botrytis cinerea 47 [17]": {"tested_on": "Botrytis cinerea 47", "assay": "agar-well method in Antibiotic Assay medium", "settings": "Botrytis cinerea, 47, read-out: Zone diam"}, "[18]": {"tested_on": "Staphylococcus aureus 20424"}}, "data": [{"smiles": "O=C(/C=C/C=C/C1CCCCC1)NC1=CC(O)(/C=C/C=C/C=C/C(=O)NC2=C(O)CCC2=O)C2OC2C1=O", "note": "(centres unmarked) [Alisamycin]", "values": [{"measurement": "MIC", "setting": "Botrytis cinerea 47 [1]", "result": "> 50", "unit": "µg/mL"}, {"measurement": "zone of inhibition at 32 µg/mL", "setting": "Piriicularia oryzae [2]; 32 μg/ml", "result": 11, "unit": "mm"}, {"measurement": "zone of inhibition at 500 µg/mL", "setting": "Piriicularia oryzae [2]; 500 μg/ml", "result": 15, "unit": "mm"}, {"measurement": "zone of inhibition at 32 µg/mL", "setting": "[3]", "result": 14, "unit": "mm"}, {"measurement": "zone of inhibition at 500 µg/mL", "setting": "[3]", "result": 27, "unit": "mm"}, {"measurement": "MIC", "setting": "[4]", "result": 1.6, "unit": "µg/mL"}, {"measurement": "solubility", "setting": "solubility; acetonitrile", "result": "fairly soluble"}, {"measurement": "solubility", "setting": "solubility; chloroform", "result": "fairly soluble"}, {"measurement": "solubility", "setting": "solubility; dimethylsulfoxide", "result": "very soluble"}, {"measurement": "solubility", "setting": "solubility; ethanol", "result": "poorly soluble"}, {"measurement": "solubility", "setting": "solubility; ethyl acetate", "result": "fairly soluble"}, {"measurement": "solubility", "setting": "solubility; hexane", "result": "poorly soluble"}, {"measurement": "solubility", "setting": "solubility; methanol", "result": "poorly soluble"}, {"measurement": "solubility", "setting": "solubility; methylene chloride", "result": "fairly soluble"}, {"measurement": "solubility", "setting": "solubility; petroleum ether", "result": "poorly soluble"}, {"measurement": "solubility", "setting": "solubility; propylene glycol", "result": "very soluble"}, {"measurement": "solubility", "setting": "solubility; water", "result": "poorly soluble"}, {"measurement": "MIC", "setting": "[5]", "result": 6.4, "unit": "µg/mL"}, {"measurement": "MIC", "setting": "Piriicularia oryzae [6]", "result": "> 50", "unit": "µg/mL"}, {"measurement": "zone of inhibition at 32 µg/mL", "setting": "[7]", "result": 18.5, "unit": "mm"}, {"measurement": "zone of inhibition at 500 µg/mL", "setting": "[7]", "result": 26, "unit": "mm"}, {"measurement": "zone of inhibition at 32 µg/mL", "setting": "[8]", "result": 13, "unit": "mm"}, {"measurement": "zone of inhibition at 500 µg/mL", "setting": "[8]", "result": 16, "unit": "mm"}, {"measurement": "zone of inhibition at 500 µg/mL", "setting": "Candida albicans [9]", "result": 10, "unit": "mm"}, {"measurement": "MIC", "setting": "[10]", "result": 6.4, "unit": "µg/mL"}, {"measurement": "antiparasitic activity", "setting": "antiparasitic activity", "result": "antiparasitic activities"}, {"measurement": "zone of inhibition at 32 µg/mL", "setting": "[11]", "result": 13, "unit": "mm"}, {"measurement": "zone of inhibition at 500 µg/mL", "setting": "[11]", "result": 22, "unit": "mm"}, {"measurement": "activity against gram-negative bacteria", "setting": "gram-negative bacteria", "result": "active"}, {"measurement": "zone of inhibition at 32 µg/mL", "setting": "[12]", "result": 16, "unit": "mm"}, {"measurement": "zone of inhibition at 500 µg/mL", "setting": "[12]", "result": 23, "unit": "mm"}, {"measurement": "MIC", "setting": "Candida albicans [13]", "result": 50, "unit": "µg/mL"}, {"measurement": "antitumor activity", "setting": "antitumor activity", "result": "found to have antitumor"}, {"measurement": "activity against gram-positive bacteria", "setting": "gram-positive bacteria", "result": "active"}, {"measurement": "zone of inhibition at 32 µg/mL", "setting": "[14]", "result": 19, "unit": "mm"}, {"measurement": "zone of inhibition at 500 µg/mL", "setting": "[14]", "result": 25, "unit": "mm"}, {"measurement": "MIC", "setting": "[15]", "result": "> 50", "unit": "µg/mL"}, {"measurement": "MIC", "setting": "[16]", "result": 6.4, "unit": "µg/mL"}, {"measurement": "zone of inhibition at 500 µg/mL", "setting": "Botrytis cinerea 47 [17]", "result": 20, "unit": "mm"}, {"measurement": "MIC", "setting": "[18]", "result": 3.2, "unit": "µg/mL"}, {"measurement": "MIC", "setting": "Escherichia coli 9632", "result": "> 50", "unit": "µg/mL"}]}]}
